Publication PMC6153549 (Investigational New Drugs, 2018)
“Also recorded” adds a separate entry of the source. Like-named read-outs stand apart in the source and are kept apart here.

Legend:
UGTs = conditions: in vitro, human liver microsomes; cited from earlier work
[1] = parameters: method as in PMID 28070719; reduction of exposure to sunitinib by paracetamol / reduction of exposure to sunitinib in liver by paracetamol / reduction of exposure to sunitinib in kidneys by paracetamol / reduction of exposure to sunitinib in brain by paracetamol: concentration or dose not given beside the values; conditions: cited from earlier work
[2] = male mice which received paracetamol; cited from earlier work
[3] = liver metabolism; cited from earlier work
[4] = Plasma pharmacokinetics of paracetamol, paracetamol glucuronide and paracetamol sulphate in rats (HPLC-UV, non-compartmental); assay type: in vivo, Wistar rats; conditions: for AUC(0-inf) / Vd/F / k el / AUC0-t / Cmax / MRT last / AUMC0-t / t0.5 / AUC0-∞: plasma; for MRT last: read-out: MRT0-t
Method: (§1) The experimental protocol for this study was reviewed and approved by the Local Ethics Committee. All procedures were performed in accordance with the European Union regulations concerning the handling and use of laboratory animals. The study was based on the required minimum number of animals and observation time in order to obtain consistent data. […] The animals were allowed to acclimatise for a week before the beginning of the experiments. The rats were divided into three groups. […] In order to make sure that the animals received the entire dose of the drug, 1 mL of DMSO was then administered to rinse the probe. 80 μL of blood was collected from each rat by cutting off a piece of his tail. […] The blood samples were transferred into heparinised tubes and they were centrifuged at 2880 g for 10 min at 4 °C.
The total time of analysis for each run was 10 min. The column temperature was maintained at 25 °C, the UV detection wavelength was set at 261 nm, and the injection volume was 50 μL. The validation was performed according to the guidelines of the European Medicines Agency (EMA) concerning validation of bioanalytical methods. […] 20 μL of the internal standard solution and 200 μL of 6% perchloric acid were added to 100 μL of the rat plasma. The samples were shaken for 30 s and then they were centrifuged for 10 min at 5000 g. About 100 μL of the resulting supernatants was transferred into glass inserts and a volume of 50 μL was injected onto HPLC column.
(§2) The pharmacokinetic parameters were estimated with the non-compartmental method, using Phoenix® WinNonlin® 7.0 software (Certara L.P.). kel – elimination rate constant; AUC0-t – area under the plasma concentration-time curve from zero to the time of the last measurable concentration; AUC0-∞ – area under the plasma concentration-time curve from zero to infinity; t0.5 – elimination half-life; Cl/F – clearance; Vd/F – volume of distribution; Cmax – maximum plasma concentration; tmax – time necessary to reach the maximum concentration; MRT0-t – mean residence time; AUMC0-t – area under the first moment curve.

UGT1A1 = test system: UGT1A1; parameters: method as in PMID 26642944; conditions: cited from earlier work
[5] = cited from earlier work
[6] = Plasma pharmacokinetics of lapatinib in rats (HPLC-MS/MS, non-compartmental); assay type: in vivo, Wistar rats; conditions: for AUC0-t / AUC(0-inf) / Cmax / Vd/F / k el / MRT last / tmax / AUMC0-t / Cl/F: plasma; for MRT last: read-out: MRT0-t
Method: as §1
Chromatographic separation was performed on a Kinetex C18 column (50 × 4.6 mm, 2.6 μm, Phenomenex, Torrance, CA, USA). The column temperature and injection volume were set at 35 °C and 10 μL, respectively. The mobile phase comprised 0.1% formic acid in water with 5 mM ammonium formate (eluent A) and acetonitrile with 10% phase A (eluent B).
An aliquot of the rat plasma (20 μL) was mixed with 50 μL of IS solution (100 ng/mL) and 930 μL of methanol and then vortexed for 30 s. As a result, a total dilution factor of 50 was obtained. After centrifugation at 10,000 g (10 min), the supernatant was transferred into amber glass HPLC vials. The validation was performed according to the guidelines of EMA concerning validation of bioanalytical methods.
as §2

UGT1A4 = test system: UGT1A4; parameters: method as in PMID 26642944; conditions: cited from earlier work
UGT1A7 = test system: UGT1A7; parameters: method as in PMID 26642944; conditions: cited from earlier work
[7] = male, Wistar, rat, po, 100 mg/kg, paracetamol 100 mg/kg p.o. + lapatinib 100 mg/kg p.o. (IL + PA), M ± SD
[8] = male, Wistar, rat, po, 100 mg/kg, paracetamol 100 mg/kg p.o. alone (IIIPA), M ± SD
[9] = paracetamol 100 mg/kg p.o. + lapatinib 100 mg/kg p.o. (IL + PA), M ± SD
[10] = paracetamol 100 mg/kg p.o. alone (IIIPA), M ± SD
[11] = IL + PA vs IIIPA group, listed as paracetamol glucoronide
[12] = paracetamol + lapatinib 100 mg/kg p.o. each (IL + PA), M ± SD
[13] = patients treated with lapatinib
[14] = male, Wistar, rat, po, 100 mg/kg, rats, lapatinib 100 mg/kg p.o. + paracetamol 100 mg/kg p.o. (IL + PA), M ± SD
[15] = male, Wistar, rat, po, 100 mg/kg, rats, lapatinib 100 mg/kg p.o. alone (IIL), M ± SD
[16] = rats, lapatinib 100 mg/kg p.o. + paracetamol 100 mg/kg p.o. (IL + PA), M ± SD
[17] = rats, lapatinib 100 mg/kg p.o. alone (IIL), M ± SD

Question: With `Cc1cn(-c2cc(NC(=O)c3ccc(C)c(Nc4nccc(-c5cccnc5)n4)c3)cc(C(F)(F)F)c2)cn1` [nilotinib] as the compound, how does the “inhibition of paracetamol glucuronidation” value (UGTs) read?
Answer: slight inhibitory effect

Question: What does the source list for `CCN(CC)CCNC(=O)c1c(C)[nH]c(/C=C2\C(=O)Nc3ccc(F)cc32)c1C` [sunitinib]?
Answer: effect of paracetamol on sunitinib concentration ([1]; female mice): did not affect the concentration; reduction of exposure to sunitinib in brain by paracetamol ([1]; female mice): 50%; reduction of exposure to sunitinib in kidneys by paracetamol ([1]; female mice): 20%; reduction of exposure to sunitinib in liver by paracetamol ([1]; female mice): 9%; reduction of exposure to sunitinib by paracetamol ([1]; male mice): 29%; reduction of exposure to sunitinib in brain by paracetamol ([1]; male mice): 47%; reduction of exposure to sunitinib in kidneys by paracetamol ([1]; male mice): 15%; reduction of exposure to sunitinib in liver by paracetamol ([1]; male mice): 15%; kidney sunitinib concentration vs control group [2]: 1.4 times; liver sunitinib concentration vs control group [2]: 2.2 times

Question: Which “fraction oxidised to toxic metabolite NAPQI” value [3] does the source give for `CC(=O)Nc1ccc(O)cc1` [paracetamol, Paracetamol] here?
Answer: less than 10%

Question: And the “fraction transformed by glucuronidation” value [3]?
Answer: 40–60%

Question: And the “fraction transformed by sulphation” value [3]?
Answer: 20–46%

Question: And the “decrease in AUC0-t” value ([4]; IL + PA vs IIIPA group)?
Answer: ~56.8%

Question: And the “decrease in AUC0-∞” value ([4]; IL + PA vs IIIPA group)?
Answer: 48.8%

Question: And the “increase in MRT0-t” value ([4]; IL + PA vs IIIPA group)?
Answer: 12.1%

Question: And the “increase in Vd/F” value ([4]; IL + PA vs IIIPA group)?
Answer: 351.5%

Question: What about the AUC(0-inf) [4, 7] of the same compound?
Answer: 45400 ± 21200 ng·h/mL

Question: And the Vd/F [4, 7]?
Answer: 8.94 ± 8.04 L

Question: And the k el [4, 7]?
Answer: 6.67e-05 s⁻¹

Question: And the AUC0-t ([4]; male, Wistar, rat, po, 100 mg/kg, paracetamol 100 mg/kg p.o. + lapatinib 100 mg/kg p.o. (IL + PA), M ± SD, read-out: AUC0-t)?
Answer: 34800 ± 20100 ng·h/mL

Question: And the Cmax ([4]; male, Wistar, rat, po, 100 mg/kg, paracetamol 100 mg/kg p.o. + lapatinib 100 mg/kg p.o. (IL + PA), M ± SD, read-out: Cmax)?
Answer: 10900 ± 6880 ng/mL

Question: And the MRT last [4, 7]?
Answer: 2.88 ± 0.27 h

Question: And the AUC(0-inf) [4, 8]?
Answer: 88600 ± 8960 ng·h/mL

Question: And the Vd/F [4, 8]?
Answer: 1.98 ± 0.63 L

Question: What about the k el [4, 8] of the same compound?
Answer: 9.17e-05 s⁻¹

Question: What about the AUC0-t ([4]; male, Wistar, rat, po, 100 mg/kg, paracetamol 100 mg/kg p.o. alone (IIIPA), M ± SD, read-out: AUC0-t) of the same compound?
Answer: 80500 ± 12100 ng·h/mL

Question: What about the Cmax ([4]; male, Wistar, rat, po, 100 mg/kg, paracetamol 100 mg/kg p.o. alone (IIIPA), M ± SD, read-out: Cmax) of the same compound?
Answer: 24700 ± 8430 ng/mL

Question: And the MRT last [4, 8]?
Answer: 2.57 ± 0.3 h

Question: And the AUMC0-t [4, 9]?
Answer: 97.11 ± 52.00 (53.6) μg × h^2/mL

Question: What about the t0.5 [4, 9] of the same compound?
Answer: 5.30 ± 6.92 (130.7) h

Question: And the AUMC0-t [4, 10]?
Answer: 203.85 ± 18.15 (8.9) μg × h^2/mL

Question: What about the t0.5 [4, 10] of the same compound?
Answer: 2.26 ± 0.70 (31.0) h

Question: What does the source list for `CC(=O)Nc1ccc(O[C@@H]2O[C@H](C(=O)O)[C@@H](O)[C@H](O)[C@H]2O)cc1` [paracetamol glucuronide]?
Answer: decrease in AUC0-t ([4]; IL + PA vs IIIPA group): 26%; decrease in AUC0-∞ ([4]; IL + PA vs IIIPA group): 29%; decrease in Cmax ([4]; IL + PA vs IIIPA group): 24%; decrease in AUC0-t [4, 11]: ~25.5%; decrease in AUC0-∞ [4, 11]: ~28.6%; decrease in Cmax [4, 11]: about 24.4%; AUC0-t [4, 9]: 101.50 ± 22.02 (21.7) μg × h/mL; AUC0-∞ [4, 9]: 109.94 ± 22.89 (20.8) μg × h/mL; Cmax [4, 9]: 29.01 ± 7.62 (26.3) μg/mL; paracetamol glucuronide/paracetamol ratio, AUC0-t [4, 10]: 1.75 ± 0.47 (27.1); paracetamol glucuronide/paracetamol ratio, Cmax [4, 10]: 1.67 ± 0.41 (24.7); AUC0-t [4, 10]: 136.24 ± 23.58 (17.31) μg × h/mL; AUC0-∞ [4, 10]: 154.08 ± 35.58 (23.09) μg × h/mL; Cmax [4, 10]: 38.38 ± 3.75 (9.76) μg/mL; paracetamol glucuronide/paracetamol ratio, AUC0-t [4, 12]: 3.68 ± 1.67 (45.4); paracetamol glucuronide/paracetamol ratio, AUC0-∞ [4, 12]: 3.36 ± 2.37 (70.6); paracetamol glucuronide/paracetamol ratio, Cmax [4, 12]: 3.58 ± 1.85 (51.5)

Question: For `CS(=O)(=O)CCNCc1ccc(-c2ccc3ncnc(Nc4ccc(OCc5cccc(F)c5)c(Cl)c4)c3c2)o1` [lapatinib, Lapatinib], which “inhibition of paracetamol glucuronidation” value (UGTs) is on record?
Answer: slight inhibitory effect; also recorded: weak inhibitor

Question: What about the UGT1A1 inhibition (UGT1A1) of the same compound?
Answer: strong competitive inhibitor

Question: What about the “patients with isolated ALT increase more than 3 times ULN” value ([5]; patients subjected to lapatinib therapy) of the same compound?
Answer: 3–5%

Question: And the “patients in whom ULN was exceeded 5–20 times” value [5, 13]?
Answer: 1.6%

Question: What about the “patients with hyperbilirubinemia and severe liver damage” value [5, 13] of the same compound?
Answer: 0.2%

Question: And the AUC0-t [6, 14]?
Answer: 20700 ± 8270 ng·h/mL

Question: And the AUC(0-inf) [6, 14]?
Answer: 39500 ± 24000 ng·h/mL

Question: And the Cmax [6, 14]?
Answer: 2240 ± 585 ng/mL

Question: What about the Vd/F [6, 14] of the same compound?
Answer: 17.5 ± 2.55 L

Question: What about the k el [6, 14] of the same compound?
Answer: 1.94e-05 s⁻¹

Question: What about the MRT last [6, 14] of the same compound?
Answer: 7.28 ± 3.15 h

Question: And the AUC0-t [6, 15]?
Answer: 6080 ± 3930 ng·h/mL

Question: And the AUC(0-inf) [6, 15]?
Answer: 8040 ± 4750 ng·h/mL

Question: And the Cmax [6, 15]?
Answer: 787 ± 213 ng/mL

Question: And the Vd/F [6, 15]?
Answer: 57.2 ± 23.3 L

Question: And the k el [6, 15]?
Answer: 2.5e-05 s⁻¹

Question: What about the MRT last [6, 15] of the same compound?
Answer: 5.77 ± 1.95 h

Question: And the tmax ([6]; male, Wistar, rat, po, 100 mg/kg, read-out: tmax)?
Answer: 2.42 ± 1.11 h

Question: What about the “increase in Cmax” value ([6]; rats, co-administration with paracetamol (IL + PA) vs lapatinib alone (IIL)) of the same compound?
Answer: 184%

Question: And the AUMC0-t [6, 16]?
Answer: 620.79 ± 1170.66 (188.6) mg × h^2/L

Question: What about the Cl/F [6, 16] of the same compound?
Answer: 2.81 ± 1.20 (42.8) L/h

Question: What about the tmax [6, 16] of the same compound?
Answer: 2.50 ± 0.84 (33.5) h

Question: And the AUMC0-t [6, 17]?
Answer: 40.79 ± 37.98 (93.1) mg × h^2/L

Question: What about the Cl/F [6, 17] of the same compound?
Answer: 11.46 ± 6.76 (59.0) L/h

Question: What about the UGT1A4 inhibition type (UGT1A4) of the same compound?
Answer: mixed

Question: What about the UGT1A7 inhibition type (UGT1A7) of the same compound?
Answer: non-competitive

Question: Which “inhibition of paracetamol glucuronidation” value (UGTs) does the source give for `C#Cc1cccc(Nc2ncnc3cc(OCCOC)c(OCCOC)cc23)c1` [erlotinib, Erlotinib] here?
Answer: slight inhibitory effect
